{
  "source": "patent US20040038419A1",
  "about": "“Assays and kits for detecting the presence of nitriles and/or cyanide” (priority 2002, published 2004)",
  "assay_type_in_all_cases": "biochemical",
  "settings_in_all_cases": "lyophilized nitrilase lysate added; OPA or NDA as fluorogenic reagent",
  "key": {"[1]": {"system": "nitrilase having SEQ ID NO: 190", "test": "OPA/NDA fluorescence assay of nitrile hydrolysis by lyophilized nitrilase lysate", "from_the_text": "FIG. 5A illustrates detection curves for assays of pivaldehyde aminonitrile (PAH), PAH combined with a lyophilized nitrilase lysate having a SEQ ID NO: 190 (“PAH+SEQ ID NO: 190”), acetophenone aminonitrile (APA), and APA combined with a lyophilized nitrilase lysate having a SEQ ID NO: 190 (“APA+SEQ ID NO: 190”), all using OPA as the fluorogenic reagent.\nFIG. 5B illustrates detection curves for PAH, PAH combined with a lyophilized nitrilase lysate having a SEQ ID NO: 190 (“PAH+SEQ ID NO: 190”), APA, and APA combined with a lyophilized nitrilase lysate having a SEQ ID NO: 190 (“APA+SEQ ID NO: 190”), all using naphthalene dicarboxyaldehyde (NDA) as the fluorogenic reagent.\n(§1) In assays using certain substrates, naphthalene dicarboxaldehyde (NDA) was substituted for OPA as the fluorescing agent. Calibration curves for APA, PAH, HPA and DMB, with either OPA or NDA were constructed (see FIGS. 5A, 5B, 5C and 5D). To determine sensitivity and background fluorescence, lyophilized nitrilase lysates with SEQ ID NOS: 190, 56, and 60 were added, respectively."}, "[2]": {"system": "nitrilase of SEQ ID NO: 56", "test": "OPA/NDA fluorescence assay of nitrile hydrolysis by nitrilase", "from_the_text": "(§2) FIG. 5C illustrates detection curves for hydroxylpivaldehyde aminonitrile (HPA), HPA combined with a nitrilase of SEQ ID NO: 56(“HPA+SEQ ID NO: 56”), dimethylbutanal aminonitrile (DMB), and DMB combined with a nitrilase of SEQ ID NO: 60 (“DMB+SEQ ID NO: 60”), all using OPA as the fluorogenic reagent.\n(§3) FIG. 5D illustrates detection curves for HPA, HPA combined with a nitrilase of SEQ ID NO: 56 (“HPA+SEQ ID NO: 56”), DMB, and DMB combined with a nitrilase of SEQ ID NO: 60 (“DMB+SEQ ID NO: 60”), all using NDA as the fluorogenic reagent.\nas §1"}, "[3]": {"system": "nitrilase of SEQ ID NO: 60", "test": "OPA/NDA fluorescence assay of nitrile hydrolysis by nitrilase", "from_the_text": "as §2, §3, §1"}},
  "data": [
    {"compound": "CC(N)(C#N)c1ccccc1", "note": "(stereo not drawn) [APA, acetophenone aminonitrile]", "values": [
      {"measurement": "hydrolysis of the enzyme substrate", "setting": "[1]", "result": "Hydrolysis was detected"}
    ]},
    {"compound": "CC(C)(CO)C(N)C#N", "note": "(stereo not drawn) [HPA, hydroxylpivaldehyde aminonitrile]", "values": [
      {"measurement": "hydrolysis of the enzyme substrate", "setting": "[2]", "result": "Hydrolysis was detected"}
    ]},
    {"compound": "dimethylbutanal aminonitrile [DMB]", "values": [
      {"measurement": "hydrolysis of the enzyme substrate", "setting": "[3]", "result": "Hydrolysis was detected"}
    ]}
  ]
}
